# Columns and labels:
# Test in all cases: relative viability (nuclei count vs DMSO), 5 days (fraction); higher = more cells survive
# [1] = compound: C[C@H]([C@@H](C(=O)N)NC(=O)[C@@H]1CSSC[C@@H](C(=O)N[C@H](C(=O)N[C@@H](C(=O)N[C@H](C(=O)N1)CCCCN)CC2=CNC3=CC=CC=C32)CC4=CC=C(C=C4)O)NC(=O)[C@@H](CC5=CC=CC=C5)N)O [CAP-232]
# Outline: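 Cells of lung cancer lines were placed in 1536-well plates and kept overnight at 37 °C. Pinning then delivered five library-drug doses (not always all listed), spaced by √10, onto plates anchored with vehicle, and the cells were left 5 days without changing medium. One step fixed, permeabilised and stained them with Hoechst, and MetaXpress counted nuclei in 4× images. Viability, as a median over plates, is treated-well nuclei divided by vehicle-well nuclei, with acceptance only at control CV below 25% and at least one doubling.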
# [2] = compound: C[C@H]([C@@H](C(=O)N)NC(=O)[C@@H]1CSSC[C@@H](C(=O)N[C@H](C(=O)N[C@@H](C(=O)N[C@H](C(=O)N1)CCCCN)CC2=CNC3=CC=CC=C32)CC4=CC=C(C=C4)O)NC(=O)[C@@H](CC5=CC=CC=C5)N)O [CAP-232] + CC1(C)CCC(c2ccc(Cl)cc2)=C(CN2CCN(c3ccc(C(=O)NS(=O)(=O)c4ccc(N[C@H](CCN5CCOCC5)CSc5ccccc5)c(S(=O)(=O)C(F)(F)F)c4)cc3)CC2)C1 [Navitoclax] (partner 0.5 µM)
# Outline: (§1)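 A single step with final 0.05% Triton X-100, 1% formaldehyde and 1 ug/ml Hoechst fixed the cells and stained nuclei 5 days after treatment. Lung cancer cell lines in 1536-well plates had been treated by pin tool the day after seeding with one drug alone or a fixed anchor-drug dose plus five library-drug doses (not always all listed) in √10 steps, and nuclei were counted on 4× images. Relative viability is the ratio of nuclei in treated wells to nuclei in vehicle wells, taken as the median of duplicate plates.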
# [3] = compound: C[C@H]([C@@H](C(=O)N)NC(=O)[C@@H]1CSSC[C@@H](C(=O)N[C@H](C(=O)N[C@@H](C(=O)N[C@H](C(=O)N1)CCCCN)CC2=CNC3=CC=CC=C32)CC4=CC=C(C=C4)O)NC(=O)[C@@H](CC5=CC=CC=C5)N)O [CAP-232] + COc1cccc2cc(-c3nc([C@H]4CC[C@H](C(=O)O)CC4)n4ncnc(N)c34)[nH]c12 [OSI-027] (partner 0.5 µM)
# Outline: as §1
# [4] = compound: C[C@H]([C@@H](C(=O)N)NC(=O)[C@@H]1CSSC[C@@H](C(=O)N[C@H](C(=O)N[C@@H](C(=O)N[C@H](C(=O)N1)CCCCN)CC2=CNC3=CC=CC=C32)CC4=CC=C(C=C4)O)NC(=O)[C@@H](CC5=CC=CC=C5)N)O [CAP-232] + CS(=O)(=O)N1CCN(Cc2cc3nc(-c4cccc5[nH]ncc45)nc(N4CCOCC4)c3s2)CC1 [Pictilisib] (partner 1 µM)
# Outline: as §1
# [5] = compound: C[C@H]([C@@H](C(=O)N)NC(=O)[C@@H]1CSSC[C@@H](C(=O)N[C@H](C(=O)N[C@@H](C(=O)N[C@H](C(=O)N1)CCCCN)CC2=CNC3=CC=CC=C32)CC4=CC=C(C=C4)O)NC(=O)[C@@H](CC5=CC=CC=C5)N)O [CAP-232] + Nc1ncn([C@H]2C[C@H](O)[C@@H](CO)O2)c(=O)n1 [Decitabine] (partner 2 µM)
# Outline: as §1
Cell Line,relative viability ([1]; 0.4 µM),relative viability ([1]; 1.265 µM),relative viability ([1]; 4 µM),relative viability ([1]; 12.65 µM),relative viability ([2]; first compound 0.4 µM),relative viability ([2]; first compound 1.265 µM),relative viability ([2]; first compound 4 µM),relative viability ([2]; first compound 12.65 µM),relative viability ([3]; first compound 0.4 µM),relative viability ([3]; first compound 1.265 µM),relative viability ([3]; first compound 4 µM),relative viability ([3]; first compound 12.65 µM),relative viability ([4]; first compound 0.4 µM),relative viability ([4]; first compound 1.265 µM),relative viability ([4]; first compound 4 µM),relative viability ([4]; first compound 12.65 µM),relative viability ([5]; first compound 0.4 µM),relative viability ([5]; first compound 1.265 µM),relative viability ([5]; first compound 4 µM),relative viability ([5]; first compound 12.65 µM)
HCC-15,1.15,1.01,1.14,0.874,0.736,0.726,0.774,0.576,0.714,0.662,0.69,0.521,0.778,0.764,0.806,0.54,0.686,0.62,0.638,0.176
HCC-44,1.11,0.988,0.963,0.978,1.03,0.977,1.16,1.14,0.636,0.507,0.489,0.371,0.675,0.616,0.428,0.594,1.03,0.962,0.972,0.935
HCC-78,1.16,0.947,1.14,0.992,0.789,0.658,0.697,0.732,0.356,0.364,0.368,0.397,0.206,0.178,0.21,0.195,0.755,0.764,0.687,0.636
HCC-366,0.988,0.964,1.04,1.09,1.06,1.17,1.2,1.09,0.986,0.875,1.22,0.82,0.133,0.154,0.148,0.189,0.407,0.301,0.317,0.384
HCC-827,1.07,1.05,1.06,0.997,0.96,1,1.03,0.993,0.896,0.786,0.831,0.637,0.842,1.1,0.896,1.05,0.334,0.357,0.324,0.365
HOP-62,0.998,0.957,1.1,0.992,0.792,0.955,1.17,0.902,1.03,0.745,0.756,0.781,0.575,–,0.741,0.84,0.255,0.209,0.256,0.229
IA-LM,1.02,0.911,1.07,0.508,0.78,0.871,0.805,0.372,–,–,–,–,0.359,0.365,0.39,0.146,–,–,–,–
LCLC-103H,1.13,0.984,1.08,0.967,–,–,–,–,0.481,0.375,0.496,0.464,0.707,0.564,0.536,0.595,0.777,0.687,0.735,0.704
NCI-H358,0.979,0.918,0.927,0.81,–,–,–,–,0.665,0.864,0.71,0.664,0.28,0.301,0.298,0.402,0.184,0.198,0.229,0.18
NCI-H522,0.967,0.982,1.01,0.916,–,–,–,–,0.72,0.702,0.806,0.696,–,–,–,–,0.677,0.623,0.572,0.658
NCI-H650,1.03,0.979,1.02,0.91,–,–,–,–,0.619,0.506,0.602,0.543,0.84,0.821,1.06,0.564,0.342,0.278,0.278,0.156
NCI-H661,0.948,1.04,1.04,0.984,–,–,–,–,0.757,0.692,0.753,0.545,0.402,0.377,0.416,0.389,0.546,0.543,0.583,0.446
NCI-H1563,0.987,0.927,0.95,0.657,–,–,–,–,0.757,0.673,0.647,0.613,0.677,0.626,0.689,0.486,–,–,–,–
NCI-H1703,0.854,0.917,0.961,0.764,1.09,0.901,0.964,0.793,–,–,–,–,0.245,0.224,0.269,0.261,–,–,–,–
NCI-H2228,1.23,0.976,1.05,0.829,0.84,0.96,0.473,1.01,0.712,0.494,0.665,0.556,0.381,0.768,0.369,0.269,–,–,–,–
NCI-H2342,0.952,0.997,1.08,0.977,–,–,–,–,0.565,0.555,0.623,0.568,–,–,–,–,0.714,0.81,0.736,0.666
SW 900,0.962,0.881,0.953,0.845,–,–,–,–,0.66,0.54,0.726,0.449,–,–,–,–,0.442,0.369,0.355,0.454
